# Data reported in US20220331310A1, “METHODS FOR ALLEVIATING PTERYGIUM-ASSOCIATED WORRY ABOUT EYE APPEARANCE” (Cloudbreak Therapeutics, LLC, priority 2019, published 2022).
# Tested on: Patients with Primary or Recurrent Pterygium
# Assay: Phase 2a vehicle-controlled study of nintedanib ophthalmic solution; patient questionnaire on symptoms and life impacts (1-5 scale)
# Type: in vivo, human
# Conditions: 0.2% nintedanib ophthalmic solution, topical ocular, TID for 28 days, versus vehicle
# Procedure: A Phase 2a Multicenter, Randomized, Vehicle-Controlled, Dose Escalating Study to Evaluate the Safety, Efficacy and Pharmacokinetics of Nintedanib Ophthalmic Solution in Patients with Primary or Recurrent Pterygium
# Objectives of the study were to evaluate ocular and systemic safety of nintedanib and its efficacy in reducing pterygium vascularity in primary or recurrent patients. Several other secondary endpoints were also assessed, including the assessment of symptoms and life impacts by using a questionnaire based on a numerical 1-5 scale. The double-masked, vehicle-controlled, parallel study was conducted with 28 days TID repeat ocular dosing of vehicle and 0.2% nintedanib.
# The disclosure focused on the relevant questionnaire endpoint that included 15 questions regarding the ocular symptoms, vision related functioning and the impact on life quality in patients. The questionnaire was derived from the validated Visual Functioning Questionnaire-25 (VFQ-25) (National Eye Institute, 2000) and the validated Ocular Surface Disease Index (OSDI) questionnaire (Schiffman R M, Christianson M D, Jacobsen G, Hirsch J D, Reis B L. Reliability and validity of the Ocular Surface Disease Index. Arch Ophthalmol. 2000; 118 (5): 615-621.). The patients were asked to rate severity using a 5-point scale, with 5 being the most severe.
compound,measurement,setting,value
COC(=O)c1ccc2c(c1)NC(=O)/C2=C(\Nc1ccc(N(C)C(=O)CN2CCN(C)CC2)cc1)c1ccccc1 [nintedanib],"frequency of worry about eye appearance (question ""Worry about eye appearance?"", change of questionnaire score)","5-point scale, 5 most severe, FIG. 1",significantly better improvements than the vehicle group
same,questionnaire questions showing a significant difference between drug and vehicle,15-question questionnaire derived from VFQ-25 and OSDI,only one out of fifteen questions showed a significant difference
